Here are results for 3 compounds from patent US20090264469A1, “NOVEL DICARBOXYLIC ACID DERIVATIVES” (BIO-PROJET, priority 2004, published 2009).

Each structure is given as a SMILES string.

For data set [1] the following is noted: J. Am. Soc. Nephrol., 13, 1073, 2002; cited from earlier work.
The subject of data set [2] is circulating lymphocytes. Particulars: in vivo; cited from earlier work.
The target in data set [3] is T1, Human S1P2 receptor (Homo sapiens, UniProt O95136).
T1 construct: expressed in transfected cells; host or cells: HEK 293 or CHOK1 cells (membranes)
Put plainly: GTP-γ-35S binding, agonist activity on S1P2 receptor. The data set is classed as biochemical. Particulars: for EC50: membranes of transfected HEK 293 or CHOK1 cells, [35S]GTP-γ-S binding; for intrinsic activity (i.a.) S1P2: relative to the maximal stimulation elicited by S1P. From the text: (§1) Human S1P1-5 receptor subtypes were stably expressed in HEK 293 or CHOK1 cells following transfection with corresponding plasmid constructs. Although the native cells somewhat respond to S1P, the level of expression and responsiveness of the antibiotic-resistant transfected cell lines that were selected is much higher.
(§2) When cultivated cells reached 80% confluence, they were collected and, after lysis, cell membranes were collected by centrifugation and washed in buffer containing antiproteases.
(§3) GTP-γ-35 S binding was performed using ˜5 μg protein of cell membranes suspended in 50 mM tris-HCl pH 7.5 containing 10 mM Mg Cl2, 100 mM NaCl and 10 μM GDP. The radioligand was 0.025 nM [35S] GTP-γ-S and non specific binding determined in the presence of 10 μM non-radioactive GTP-γ-S. S1P and receptor agonists enhance the specific binding whereas inverse agonists reduce it. The maximal stimulation elicited by S1P was taken as a reference to define full or partial agonism and calculate the intrinsic activity (i.a.) of compounds.
Background: Binding of GTPγS marks nucleotide exchange on a G protein.

The target of data set [4] is T2, Human S1P1 receptor (Homo sapiens, UniProt P21453).
T2 construct: expressed in transfected cells; host or cells: HEK 293 or CHOK1 cells (membranes)
In words: GTP-γ-35S binding, agonist activity on S1P1 receptor. The data set is classed as biochemical. Conditions: for EC50: membranes of transfected HEK 293 or CHOK1 cells, [35S]GTP-γ-S binding; for intrinsic activity (i.a.) S1P1: relative to the maximal stimulation elicited by S1P.
Description: as §1, §2, §3

Data set [5] deals with T3, Human S1P3 receptor (Homo sapiens, UniProt Q99500).
T3 construct: expressed in transfected cells; host or cells: HEK 293 or CHOK1 cells (membranes)
Put plainly: GTP-γ-35S binding, agonist activity on S1P3 receptor. The data set is classed as biochemical. Particulars: for EC50: membranes of transfected HEK 293 or CHOK1 cells, [35S]GTP-γ-S binding; for intrinsic activity (i.a.) S1P3: relative to the maximal stimulation elicited by S1P.
Description: as §1, §2, §3

T3 sequence (Q99500 whole entry): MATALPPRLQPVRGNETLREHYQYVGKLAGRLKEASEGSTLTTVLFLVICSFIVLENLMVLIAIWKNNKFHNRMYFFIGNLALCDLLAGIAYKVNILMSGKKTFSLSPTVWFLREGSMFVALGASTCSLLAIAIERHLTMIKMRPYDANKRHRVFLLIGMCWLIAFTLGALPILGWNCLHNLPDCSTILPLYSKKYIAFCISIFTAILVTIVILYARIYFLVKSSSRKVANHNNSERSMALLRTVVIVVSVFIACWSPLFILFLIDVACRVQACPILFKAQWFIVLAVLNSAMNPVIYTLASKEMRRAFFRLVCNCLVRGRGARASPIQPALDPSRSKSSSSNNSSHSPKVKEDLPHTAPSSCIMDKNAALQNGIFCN
T2 sequence (P21453 whole entry): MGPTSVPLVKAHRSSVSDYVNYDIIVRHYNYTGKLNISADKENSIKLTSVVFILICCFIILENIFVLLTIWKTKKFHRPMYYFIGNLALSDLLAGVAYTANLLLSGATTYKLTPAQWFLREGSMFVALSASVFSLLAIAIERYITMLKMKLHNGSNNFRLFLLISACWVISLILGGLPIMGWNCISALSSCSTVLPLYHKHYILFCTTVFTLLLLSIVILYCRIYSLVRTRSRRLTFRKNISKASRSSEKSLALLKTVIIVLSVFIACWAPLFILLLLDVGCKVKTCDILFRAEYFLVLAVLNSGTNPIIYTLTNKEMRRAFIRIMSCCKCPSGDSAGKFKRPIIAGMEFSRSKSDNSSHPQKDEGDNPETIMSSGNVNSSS
T1 sequence (O95136 whole entry): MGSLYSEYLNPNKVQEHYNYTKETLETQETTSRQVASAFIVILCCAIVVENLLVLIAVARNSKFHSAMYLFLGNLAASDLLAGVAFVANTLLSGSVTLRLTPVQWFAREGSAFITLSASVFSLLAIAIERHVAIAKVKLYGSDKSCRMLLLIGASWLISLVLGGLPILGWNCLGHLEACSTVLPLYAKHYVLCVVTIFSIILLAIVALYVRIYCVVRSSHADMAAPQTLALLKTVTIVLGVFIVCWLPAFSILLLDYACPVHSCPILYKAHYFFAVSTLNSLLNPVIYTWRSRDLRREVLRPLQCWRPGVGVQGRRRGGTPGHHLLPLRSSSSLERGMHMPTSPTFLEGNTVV

In the case of `CCCCCCCCc1ccc(CCC(N)(CO)CO)cc1` [FTY 720], in data set [1], the adverse event result is listed as “transient asymptomatic bradycardia”. Further, the circulating lymphocytes result in data set [2] was “decrease”.
As for `CCCCCCCCCCc1ccc(CNC2CCC(C(=O)O)(C(=O)O)C2)cc1` (centres unmarked) [Example 12, 3-(4-decylbenzylamino)cyclopentane-1,1-dicarboxylic acid], in data set [3], the concentration giving a half-maximal response (EC50) (commonly the concentration at which the effect is half-maximal) is 5 nM and the “intrinsic activity (i.a.) S1P2” value is on record as 1. Besides, in data set [4], the EC50 turned out to be 13 nM and the “intrinsic activity (i.a.) S1P1” value came to 1. Moreover, in data set [5], the EC50 was greater than 1000 nM and the “intrinsic activity (i.a.) S1P3” value is on record as roughly 0.3.
On to `CCCCCCCCCc1ccc(CNC2CCC(C(=O)O)(C(=O)O)C2)cc1` (centres unmarked) [Example 3, 3-(4-nonylbenzylamino)cyclopentane-1,1-dicarboxylic acid], for which, in data set [3], the EC50 turned out to be 4 nM and the “intrinsic activity (i.a.) S1P2” value stood at 1. For the same compound, in data set [4], the EC50 worked out at 6 nM and the “intrinsic activity (i.a.) S1P1” value stood at 1. In addition, in data set [5], the EC50 was greater than 1000 nM and the “intrinsic activity (i.a.) S1P3” value is roughly 0.3.
